Data as given in PubChem BioAssay AID2060903 (Molecular Pharmacology Branch, DTP, NCI, 2025).

System: 377384-186-R-J1-PDC complex spheroid viability
Assay: Anticancer human tumor 377384-186-R-J1-PDC patient-derived pancreatic carcinoma cell line growth inhibition [RAS]
Settings: for viability, T/C: stronger effect = lower value
Outline: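 Tumour cells grown as complex spheroids with HUVEC endothelial cells and mesenchymal stem cells, treated with RAS pathway inhibitor combinations. Each agent spans half-log steps from near clinical Cmax, or 10 microM where Cmax is unknown.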
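Further: spheroids exposed to compounds for seven days before readout.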

O=C(c1ccc(F)c(F)c1Nc1ccc(I)cc1F)N1CC(O)([C@@H]2CCCCN2)C1 + C=CC(=O)N1CCN(c2nc(OCC3CCCN3C)nc3c(F)c(-c4nc(N)cc(C)c4C(F)(F)F)c(Cl)cc23)C(C)C1
IC50 (curve of first compound, second compound 0.00316 µM): 42.5 nM | IC50 (curve of first compound, second compound 0.01 µM): 33 nM | IC50 (curve of first compound, second compound 0.0316 µM): 36.7 nM | IC50 (curve of first compound, second compound 0.1 µM): 37.3 nM | IC50 (curve of first compound, second compound 0.316 µM): 40.6 nM | IC50 (curve of first compound, second compound 1 µM): 45.1 nM | viability, T/C (second compound 0.00316 µM, first compound 0.00316 µM): 81.3% | viability, T/C (second compound 0.00316 µM, first compound 0.01 µM): 79.2% | viability, T/C (second compound 0.00316 µM, first compound 0.0316 µM): 58.5% | viability, T/C (second compound 0.00316 µM, first compound 0.1 µM): 23.8% | viability, T/C (second compound 0.00316 µM, first compound 0.316 µM): 3.06% | viability, T/C (second compound 0.00316 µM, first compound 1 µM): 0.45% | viability, T/C (second compound 0.01 µM, first compound 0.00316 µM): 94.9% | viability, T/C (second compound 0.01 µM, first compound 0.01 µM): 77.9% | viability, T/C (second compound 0.01 µM, first compound 0.0316 µM): 51.3% | viability, T/C (second compound 0.01 µM, first compound 0.1 µM): 23.6% | viability, T/C (second compound 0.01 µM, first compound 0.316 µM): 2.14% | viability, T/C (second compound 0.01 µM, first compound 1 µM): 0.43% | viability, T/C (second compound 0.0316 µM, first compound 0.00316 µM): 93.3% | viability, T/C (second compound 0.0316 µM, first compound 0.01 µM): 73.3% | viability, T/C (second compound 0.0316 µM, first compound 0.0316 µM): 58.9% | viability, T/C (second compound 0.0316 µM, first compound 0.1 µM): 20% | viability, T/C (second compound 0.0316 µM, first compound 0.316 µM): 2.38% | viability, T/C (second compound 0.0316 µM, first compound 1 µM): 0.3% | viability, T/C (second compound 0.1 µM, first compound 0.00316 µM): 94.6% | viability, T/C (second compound 0.1 µM, first compound 0.01 µM): 68.5% | viability, T/C (second compound 0.1 µM, first compound 0.0316 µM): 62.3% | viability, T/C (second compound 0.1 µM, first compound 0.1 µM): 20.7% | viability, T/C (second compound 0.1 µM, first compound 0.316 µM): 2.8% | viability, T/C (second compound 0.1 µM, first compound 1 µM): 0.78% | viability, T/C (second compound 0.316 µM, first compound 0.00316 µM): 77.7% | viability, T/C (second compound 0.316 µM, first compound 0.01 µM): 74.7% | viability, T/C (second compound 0.316 µM, first compound 0.0316 µM): 57.5% | viability, T/C (second compound 0.316 µM, first compound 0.1 µM): 22.5% | viability, T/C (second compound 0.316 µM, first compound 0.316 µM): 2.78% | viability, T/C (second compound 0.316 µM, first compound 1 µM): 0.48% | viability, T/C (second compound 1 µM, first compound 0.00316 µM): 88.8% | viability, T/C (second compound 1 µM, first compound 0.01 µM): 80.8% | viability, T/C (second compound 1 µM, first compound 0.0316 µM): 62% | viability, T/C (second compound 1 µM, first compound 0.1 µM): 24.5% | viability, T/C (second compound 1 µM, first compound 0.316 µM): 2.77% | viability, T/C (second compound 1 µM, first compound 1 µM): 0.56%

CCN1CCN(Cc2ccc(Nc3ncc(F)c(-c4cc(F)c5nc(C)n(C(C)C)c5c4)n3)nc2)CC1 + CCn1c(-c2cccnc2C(C)OC)c2c3cc(ccc31)N1CCOC(CC(NC(=O)C(C(C)C)N(C)C(=O)C3(F)CCN(C(=O)C#CC(C)(C)N(C)C)CC3)C(=O)N3CCCC(N3)C(=O)OCC(C)(C)C2)C1
IC50 (curve of first compound, second compound 0.000949 µM): 315 nM | IC50 (curve of first compound, second compound 0.003 µM): 222 nM | IC50 (curve of first compound, second compound 0.00949 µM): 257 nM | IC50 (curve of first compound, second compound 0.03 µM): 126 nM | IC50 (curve of first compound, second compound 0.0949 µM): 178 nM | IC50 (curve of first compound, second compound 0.3 µM): 83.7 nM | viability, T/C (second compound 0.000949 µM, first compound 0.00316 µM): 97% | viability, T/C (second compound 0.000949 µM, first compound 0.01 µM): 75.4% | viability, T/C (second compound 0.000949 µM, first compound 0.0316 µM): 68.4% | viability, T/C (second compound 0.000949 µM, first compound 0.1 µM): 65.8% | viability, T/C (second compound 0.000949 µM, first compound 0.316 µM): 46.6% | viability, T/C (second compound 0.000949 µM, first compound 1 µM): 42% | viability, T/C (second compound 0.003 µM, first compound 0.00316 µM): 96% | viability, T/C (second compound 0.003 µM, first compound 0.01 µM): 78.7% | viability, T/C (second compound 0.003 µM, first compound 0.0316 µM): 75.3% | viability, T/C (second compound 0.003 µM, first compound 0.1 µM): 54.6% | viability, T/C (second compound 0.003 µM, first compound 0.316 µM): 45.8% | viability, T/C (second compound 0.003 µM, first compound 1 µM): 41.3% | viability, T/C (second compound 0.00949 µM, first compound 0.00316 µM): 102% | viability, T/C (second compound 0.00949 µM, first compound 0.01 µM): 93.4% | viability, T/C (second compound 0.00949 µM, first compound 0.0316 µM): 65.2% | viability, T/C (second compound 0.00949 µM, first compound 0.1 µM): 60% | viability, T/C (second compound 0.00949 µM, first compound 0.316 µM): 50.2% | viability, T/C (second compound 0.00949 µM, first compound 1 µM): 43.2% | viability, T/C (second compound 0.03 µM, first compound 0.00316 µM): 81.2% | viability, T/C (second compound 0.03 µM, first compound 0.01 µM): 89.2% | viability, T/C (second compound 0.03 µM, first compound 0.0316 µM): 75.9% | viability, T/C (second compound 0.03 µM, first compound 0.1 µM): 52% | viability, T/C (second compound 0.03 µM, first compound 0.316 µM): 43% | viability, T/C (second compound 0.03 µM, first compound 1 µM): 44.5% | viability, T/C (second compound 0.0949 µM, first compound 0.00316 µM): 85% | viability, T/C (second compound 0.0949 µM, first compound 0.01 µM): 83.3% | viability, T/C (second compound 0.0949 µM, first compound 0.0316 µM): 73.9% | viability, T/C (second compound 0.0949 µM, first compound 0.1 µM): 58.8% | viability, T/C (second compound 0.0949 µM, first compound 0.316 µM): 41.3% | viability, T/C (second compound 0.0949 µM, first compound 1 µM): 34.5% | viability, T/C (second compound 0.3 µM, first compound 0.00316 µM): 75.3% | viability, T/C (second compound 0.3 µM, first compound 0.01 µM): 73% | viability, T/C (second compound 0.3 µM, first compound 0.0316 µM): 64.2% | viability, T/C (second compound 0.3 µM, first compound 0.1 µM): 48.4% | viability, T/C (second compound 0.3 µM, first compound 0.316 µM): 34.5% | viability, T/C (second compound 0.3 µM, first compound 1 µM): 35.3%

NC1c2ccccc2OC12CCN(c1cnc3c(N4CCCc5ncccc54)n[nH]c3n1)CC2 (stereo not given)
viability, T/C (compound 0.1 µM): 83.4% [middle of 4 runs] | viability, T/C (compound 0.316 µM): 80.6% [middle of 4 runs] | viability, T/C (compound 1 µM): 73% [middle of 4 runs] | viability, T/C (compound 3.16 µM): 76.8% [middle of 4 runs] | viability, T/C (compound 10 µM): 70% [middle of 4 runs] | IC50 (curve of compound): > 10000 nM
